Results as given in patent publication US8962641B2, “Pyrimidine-substituted pyrrolidine derivatives, pharmaceutical compositions and uses thereof” (Boehringer Ingelheim International GmbH, priority 2013, dated 2015).

target: human ACC2 (Homo sapiens (Human), UniProt O00763); assay: ACC2 assay (spectrophotometric 384 well assay, NADH-linked kinetic method); format: biochemical; settings: not given
Method: Spectrophotometric 384 Well Assay
Malonyl CoA formation by acetyl CoA carboxylases is stoichometrically linked to the consumption of ATP. ACC2 activity is measured in a NADH-linked kinetic method measuring ADP generated during the ACC reaction using a coupled lactate dehydrogenase/pyruvate kinase reaction.
The protein is then expressed in insect cells using a baculoviral expression system. Protein purification is performed by anion exchange.
All compounds are dissolved in dimethyl sulfoxide (DMSO) to a concentration of 10 mM.
The enzymatic reaction is then started by addition of a mixture of NADH, acetyl Coenzyme A (both 200 μM f.c.) and ATP (500 uM f.c.). The decrease of the optical density (slope S) is then determined at 25° C. at a wavelength of 340 nm over 15 minutes in a spectrophotometric reader.
Each assay microtiter plate contains wells with vehicle instead of compound as controls for the non-inhibited enzyme (100% CTL; ‘HIGH’) and wells without acetyl-CoA as controls for non-specific NADH degradation (0% CTL; ‘LOW’).

human ACC2, sequence (O00763 129-2458): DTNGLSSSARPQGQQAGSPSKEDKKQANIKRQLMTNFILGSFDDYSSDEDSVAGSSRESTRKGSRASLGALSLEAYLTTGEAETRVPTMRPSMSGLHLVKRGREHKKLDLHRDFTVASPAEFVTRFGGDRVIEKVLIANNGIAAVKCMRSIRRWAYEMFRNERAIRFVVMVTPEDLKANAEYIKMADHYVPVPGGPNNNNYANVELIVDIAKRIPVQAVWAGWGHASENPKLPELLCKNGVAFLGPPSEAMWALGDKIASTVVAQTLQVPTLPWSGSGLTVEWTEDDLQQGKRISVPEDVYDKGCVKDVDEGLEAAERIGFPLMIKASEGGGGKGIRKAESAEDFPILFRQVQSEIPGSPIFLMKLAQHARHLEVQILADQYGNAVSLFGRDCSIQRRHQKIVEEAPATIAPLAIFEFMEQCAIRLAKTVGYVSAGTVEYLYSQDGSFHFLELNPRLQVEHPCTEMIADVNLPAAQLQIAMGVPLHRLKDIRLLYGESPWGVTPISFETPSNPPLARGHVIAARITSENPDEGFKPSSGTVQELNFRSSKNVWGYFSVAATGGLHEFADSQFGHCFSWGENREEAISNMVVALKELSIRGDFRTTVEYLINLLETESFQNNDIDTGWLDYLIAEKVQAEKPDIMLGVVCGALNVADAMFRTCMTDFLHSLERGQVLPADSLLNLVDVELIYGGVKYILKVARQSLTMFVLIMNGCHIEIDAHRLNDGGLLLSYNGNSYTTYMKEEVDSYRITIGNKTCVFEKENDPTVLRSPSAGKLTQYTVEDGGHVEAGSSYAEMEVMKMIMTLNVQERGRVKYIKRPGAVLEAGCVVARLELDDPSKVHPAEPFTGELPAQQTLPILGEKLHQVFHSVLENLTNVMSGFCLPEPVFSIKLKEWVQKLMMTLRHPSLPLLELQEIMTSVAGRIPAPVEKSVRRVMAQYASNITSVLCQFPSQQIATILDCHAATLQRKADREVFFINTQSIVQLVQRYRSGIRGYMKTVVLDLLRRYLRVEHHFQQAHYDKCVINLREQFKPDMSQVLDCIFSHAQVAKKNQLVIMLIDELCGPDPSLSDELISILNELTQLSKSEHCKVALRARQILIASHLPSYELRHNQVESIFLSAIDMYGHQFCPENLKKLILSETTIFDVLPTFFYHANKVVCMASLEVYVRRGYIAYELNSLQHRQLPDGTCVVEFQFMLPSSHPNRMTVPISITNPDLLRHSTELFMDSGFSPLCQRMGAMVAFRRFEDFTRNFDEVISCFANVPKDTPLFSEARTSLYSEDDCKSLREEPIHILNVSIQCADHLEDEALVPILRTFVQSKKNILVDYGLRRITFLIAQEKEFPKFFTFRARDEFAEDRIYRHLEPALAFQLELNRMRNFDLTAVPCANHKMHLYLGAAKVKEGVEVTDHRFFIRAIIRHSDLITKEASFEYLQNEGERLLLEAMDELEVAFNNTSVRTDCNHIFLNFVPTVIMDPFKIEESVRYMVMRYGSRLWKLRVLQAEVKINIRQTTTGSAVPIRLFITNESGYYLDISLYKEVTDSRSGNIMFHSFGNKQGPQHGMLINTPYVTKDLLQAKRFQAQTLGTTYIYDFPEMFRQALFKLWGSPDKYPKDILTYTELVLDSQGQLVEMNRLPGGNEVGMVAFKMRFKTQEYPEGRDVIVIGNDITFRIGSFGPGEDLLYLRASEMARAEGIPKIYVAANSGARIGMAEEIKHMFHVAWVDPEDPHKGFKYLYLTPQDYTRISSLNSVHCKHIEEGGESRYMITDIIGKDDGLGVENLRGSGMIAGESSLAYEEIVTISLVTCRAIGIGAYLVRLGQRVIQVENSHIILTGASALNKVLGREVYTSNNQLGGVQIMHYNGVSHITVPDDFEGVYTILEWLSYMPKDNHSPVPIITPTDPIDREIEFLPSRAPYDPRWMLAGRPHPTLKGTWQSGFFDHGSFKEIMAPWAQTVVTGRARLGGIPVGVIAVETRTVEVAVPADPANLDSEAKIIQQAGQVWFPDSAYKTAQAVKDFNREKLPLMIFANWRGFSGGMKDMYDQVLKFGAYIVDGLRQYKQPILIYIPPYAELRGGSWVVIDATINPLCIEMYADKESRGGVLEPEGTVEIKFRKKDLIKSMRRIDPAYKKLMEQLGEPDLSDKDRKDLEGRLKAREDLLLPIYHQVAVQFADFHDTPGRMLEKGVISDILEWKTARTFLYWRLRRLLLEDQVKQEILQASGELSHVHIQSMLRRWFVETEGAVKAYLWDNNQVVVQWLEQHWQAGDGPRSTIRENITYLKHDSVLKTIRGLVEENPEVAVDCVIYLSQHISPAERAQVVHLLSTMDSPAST

SMILES	IC50 [nM]
C[C@H](NC(=O)C1CC1)c1ccc(O[C@@H]2CCN(c3ccnc(N(C)CC(F)F)n3)C2)cc1 [Example 2.1, N—((S)-1-(4-((R)-1-(2-((2,2-difluoroethyl)(methyl)amino)pyrimidin-4-yl)pyrrolidin-3-yloxy)phenyl)ethyl)cyclopropanecarboxamide]	65

same assay, conditions: hACC2 construct lacking 128 N-terminal amino acids; coupled lactate dehydrogenase/pyruvate kinase reaction, 340 nm, 25° C.

SMILES	IC50 [nM]
COC1CCN(c2ncc(Cl)c(N3CC[C@@H](Oc4ccc([C@H](C)NC(C)=O)cc4)C3)n2)CC1 [Example 8.153]	679
COCCN(CC(F)F)c1nccc(N2CC[C@@H](Oc3ccc([C@H](C)NC(C)=O)cc3)C2)n1 [Example 8.83]	165
CCN(C)c1nccc(N2CC[C@@H](Oc3ccc([C@H](C)NC(C)=O)cc3)C2)n1 [Example 8.21]	190
CNC(=O)N[C@@H](C)c1ccc(OC2CCN(c3ncnc(OCC4CC4)c3F)C2)cc1 (stereo partly shown) [Example 3.11]	110
CC(=O)Nc1nc(C)c(C(=O)N[C@@H](C)c2ccc(OC3CCN(c4ccnc(N5CCOCC5)n4)C3)cc2)s1 (stereo partly shown) [Example 2.3]	547
CCN(CC)c1ncnc(N2CC[C@@H](Oc3ccc([C@H](C)NC(C)=O)cc3)C2)c1C [Example 8.100]	180
CCC(=O)N[C@@H](C)c1ccc(OC2CCN(c3ccnc(N(C)CC(F)F)n3)C2)cc1 (stereo partly shown) [Example 2.16]	45
CCCN(C)c1nccc(N2CC[C@@H](Oc3ccc([C@H](C)NC(C)=O)cc3)C2)n1 [Example 8.6]	102
Cc1oncc1C(=O)N[C@@H](C)c1ccc(OC2CCN(c3ccnc(N(C)CC(F)F)n3)C2)cc1 (stereo partly shown) [Example 2.12]	90
CCOc1ncnc(N2CC[C@@H](Oc3ccc([C@H](C)NC(C)=O)cc3)C2)c1C [Example 7.24]	394
CCN(CCO)c1nccc(N2CC[C@@H](Oc3ccc([C@H](C)NC(C)=O)cc3)C2)n1 [Example 8.263]	698
CC(=O)N[C@@H](C)c1ccc(O[C@@H]2CCN(c3ccnc(N4CCc5nocc5C4)n3)C2)cc1 [Example 8.246]	680
COc1c(OC(C)C)ncnc1N1CC[C@@H](Oc2ccc([C@H](C)NC(C)=O)cc2)C1 [Example 7.50]	97
CCN(CC)c1ncnc(N2CC[C@@H](Oc3ccc([C@H](C)NC(C)=O)cc3)C2)c1Cl [Example 8.104]	59
CC(=O)N[C@@H](C)c1ccc(O[C@@H]2CCN(c3ncnc(N4CC[C@@H](C)C4)c3F)C2)cc1 [Example 8.294]	52
CCOC(=O)N[C@@H](C)c1ccc(OC2CCN(c3ccnc(N4CCOCC4)n3)C2)cc1 (stereo partly shown) [Example 4.3]	494
CC(=O)N[C@@H](C)c1ccc(O[C@@H]2CCN(c3ncnc(N(C)C(C)C)c3F)C2)cc1 [Example 8.135]	131
CCCN(C)c1ncc(Cl)c(N2CC[C@@H](Oc3ccc([C@H](C)NC(C)=O)cc3)C2)n1 [Example 8.47]	65
CC(=O)N[C@@H](C)c1ccc(O[C@@H]2CCN(c3nc(N4C[C@@H]5CC[C@@H](C4)O5)ncc3Cl)C2)cc1 [Example 8.280]	1230
CCCN(CCC#N)c1nccc(N2CC[C@@H](Oc3ccc([C@H](C)NC(C)=O)cc3)C2)n1 [Example 8.109]	245
CCN(CC)c1nc(N2CC[C@@H](Oc3ccc([C@H](C)NC(C)=O)cc3)C2)ncc1F [Example 6.13]	510

SMILES	IC50 [nM]
CC(=O)N[C@@H](C)c1ccc(O[C@@H]2CCN(c3ncnc(N4CCC(C)(O)C4)c3F)C2)cc1 (stereo partly shown) [Example 8.269]	188
CC(=O)N[C@@H](C)c1ccc(O[C@@H]2CCN(c3ccnc(C(C)C)n3)C2)cc1 [Example 6.9]	654
C[C@H](NC(=O)C1CC1)c1ccc(O[C@@H]2CCN(c3nc(N4CCC5(CC5)C4)ncc3F)C2)cc1 [Example 10.4]	120
CC(=O)N[C@@H](C)c1ccc(O[C@@H]2CCN(c3nc(N(C)CC(C)(C)O)ncc3F)C2)cc1 [Example 8.28]	809
CC(=O)N[C@@H](C)c1ccc(O[C@@H]2CCN(c3nc(N(C)C[C@@H]4CCCO4)ncc3F)C2)cc1 [Example 8.165]	75
CCN(CC)c1ncc(Cl)c(N2CC[C@@H](Oc3ccc([C@H](C)NC(C)=O)cc3)C2)n1 [Example 8.60]	59
CC(=O)N[C@@H](C)c1ccc(O[C@@H]2CCN(c3nc(N4CCC[C@@H]4C)ncc3Cl)C2)cc1 [Example 8.281]	372
CC(=O)N[C@@H](C)c1ccc(O[C@@H]2CCN(c3nc(N4CC5COCC5C4)ncc3F)C2)cc1 (stereo partly shown) [Example 8.272]	1190
CC(=O)N[C@@H](C)c1ccc(O[C@@H]2CCN(c3cc(N(C)CC4CC4)ncn3)C2)cc1 [Example 8.2]	424
CC(=O)N[C@@H](C)c1ccc(O[C@@H]2CCN(c3nc(N4CCOC(C(F)(F)F)C4)ncc3F)C2)cc1 (stereo partly shown) [Example 8.257]	121
CC(=O)N[C@@H](C)c1ccc(O[C@@H]2CCN(c3ncnc(N4CCC(C)(O)C4)c3Cl)C2)cc1 (stereo partly shown) [Example 8.297]	224
CCCN(C)c1ncnc(N2CC[C@@H](Oc3ccc([C@H](C)NC(C)=O)cc3)C2)c1F [Example 8.144]	104
CCN(CCC#N)c1ncc(Cl)c(N2CC[C@@H](Oc3ccc([C@H](C)NC(C)=O)cc3)C2)n1 [Example 8.149]	387
CCC(=O)Nc1nc(C)c(C(=O)N[C@@H](C)c2ccc(O[C@@H]3CCN(c4ncnc(NCC5CC5)c4Cl)C3)cc2)s1 [Example 8.307]	94
C[C@H](NC(=O)c1cn[nH]c1)c1ccc(OC2CCN(c3ccnc(N(C)CC(F)F)n3)C2)cc1 (stereo partly shown) [Example 2.15]	70
CCN(C)c1nccc(N2CCC(Oc3ccc([C@H](C)NC(=O)C4CC4)cc3)C2)n1 (stereo partly shown) [Example 2.14]	63
CC(=O)N[C@@H](C)c1ccc(O[C@@H]2CCN(c3ccnc(N4CCOC(C)C4)n3)C2)cc1 (stereo partly shown) [Example 8.84]	212
CC(=O)N[C@@H](C)c1ccc(O[C@@H]2CCN(c3ncc(OCC4CCC4)cn3)C2)cc1 [Example 6.1, N—((S)-1-(4-((R)-1-(5-(cyclobutylmethoxy)pyrimidin-2-yl)pyrrolidin-3-yloxy)phenyl)ethyl)acetamide]	110
COc1c(OCC2CC2)ncnc1N1CC[C@@H](Oc2ccc([C@H](C)NC(=O)c3coc(NC(C)=O)n3)cc2)C1 [Example 2.33]	908
CCCOc1ncnc(N2CC[C@@H](Oc3ccc([C@H](C)NC(C)=O)cc3)C2)c1OC [Example 7.51]	392
COC[C@H]1CCCN1c1nccc(N2CC[C@@H](Oc3ccc([C@H](C)NC(C)=O)cc3)C2)n1 [Example 8.228]	619

SMILES	IC50 [nM]
CC(=O)N[C@@H](C)c1ccc(O[C@@H]2CCN(c3ccnc(N(C)CC(C)C)n3)C2)cc1 [Example 8.171]	175
CC(=O)N[C@@H](C)c1ccc(O[C@@H]2CCN(c3ccnc(N4CCCC(F)(F)C4)n3)C2)cc1 [Example 8.208]	172
CCN(CCO)c1ncc(Cl)c(N2CC[C@@H](Oc3ccc([C@H](C)NC(C)=O)cc3)C2)n1 [Example 8.178]	389
COCCN(C)c1ncnc(N2CC[C@@H](Oc3ccc([C@H](C)NC(C)=O)cc3)C2)c1F [Example 8.134]	208
CCC(=O)Nc1nc(C)c(C(=O)N[C@@H](C)c2ccc(O[C@@H]3CCN(c4ncnc(OCC5CC5)c4OC)C3)cc2)s1 [Example 7.63]	112
CC(=O)N[C@@H](C)c1ccc(O[C@@H]2CCN(c3ncnc(N4CC5COCC5C4)c3F)C2)cc1 (stereo partly shown) [Example 8.172]	675
CC(=O)N[C@@H](C)c1ccc(O[C@@H]2CCN(c3nc(N4CCCC(F)(F)C4)ncc3F)C2)cc1 [Example 8.218]	140
COc1c(OCC(C)(F)F)ncnc1N1CC[C@@H](Oc2ccc([C@H](C)NC(C)=O)cc2)C1 [Example 7.49]	117
CC(=O)N[C@@H](C)c1ccc(O[C@@H]2CCN(c3nc(N4CCOC(C)C4)ncc3F)C2)cc1 (stereo partly shown) [Example 8.274]	130
CC(=O)N[C@@H](C)c1ccc(O[C@@H]2CCN(c3nc(N4CCOC(C)C4)ncc3Cl)C2)cc1 (stereo partly shown) [Example 8.186]	204
CC(=O)N[C@@H](C)c1ccc(O[C@@H]2CCN(c3nc(N4CCOC(C(F)(F)F)C4)ncc3Cl)C2)cc1 (stereo partly shown) [Example 8.174]	170
CC(=O)N[C@@H](C)c1ccc(O[C@@H]2CCN(c3ccnc(N4CCC(F)(F)CC4)n3)C2)cc1 [Example 8.207]	99
CC(=O)N[C@@H](C)c1ccc(O[C@@H]2CCN(c3nc(OC4CCC4)ncc3F)C2)cc1 [Example 7.11]	368
CC(=O)N[C@@H](C)c1ccc(O[C@@H]2CCN(c3ncnc(N4CCC(F)(F)C4)c3F)C2)cc1 [Example 8.140]	109
CC(=O)N[C@@H](C)c1ccc(O[C@@H]2CCN(c3ccnc(N4CC5(CCC5)C4)n3)C2)cc1 [Example 8.75]	358
CC(=O)N[C@@H](C)c1ccc(O[C@@H]2CCN(c3ncnc(N4CCC(F)(F)CC4)c3F)C2)cc1 [Example 8.251]	97
COC[C@H](C)N(C)c1nccc(N2CC[C@@H](Oc3ccc([C@H](C)NC(C)=O)cc3)C2)n1 [Example 8.204]	945
CC(=O)N[C@@H](C)c1ccc(O[C@@H]2CCN(c3ccnc(N4CCC5(CC5)C4)n3)C2)cc1 [Example 8.76]	155
CC(=O)N[C@@H](C)c1ccc(O[C@@H]2CCN(c3nc(N4CCC(F)(F)C4)ncc3F)C2)cc1 [Example 8.69]	102
CO[C@H]1CCN(c2ncc(F)c(N3CC[C@@H](Oc4ccc([C@H](C)NC(C)=O)cc4)C3)n2)C1 [Example 8.259]	173
CC(=O)N[C@@H](C)c1ccc(O[C@@H]2CCN(c3ncnc(OCC(C)(F)F)c3F)C2)cc1 [Example 7.33]	86
